Measured values published in paper PMC6934184, “Selective DNA-PKcs inhibition extends the therapeutic index of localized radiotherapy and chemotherapy” (The Journal of Clinical Investigation, 2019).

Target: T1, MATK (HYL) (Homo sapiens, UniProt P42679)
T1 construct: purchased Thermo Fisher Scientific (Life Technologies) SelectScreen
Assay: SelectScreen Z'LYTE
Format: biochemical
Procedure, shortened: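 SelectScreen broad panel; activity (Z'LYTE, Adapta) plus binding formats. ATP: Km app for CSF1R Z'LYTE; 10 for CAMK1 Adapta. Readout = % per kinase.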

T1 sequence (P42679 whole entry): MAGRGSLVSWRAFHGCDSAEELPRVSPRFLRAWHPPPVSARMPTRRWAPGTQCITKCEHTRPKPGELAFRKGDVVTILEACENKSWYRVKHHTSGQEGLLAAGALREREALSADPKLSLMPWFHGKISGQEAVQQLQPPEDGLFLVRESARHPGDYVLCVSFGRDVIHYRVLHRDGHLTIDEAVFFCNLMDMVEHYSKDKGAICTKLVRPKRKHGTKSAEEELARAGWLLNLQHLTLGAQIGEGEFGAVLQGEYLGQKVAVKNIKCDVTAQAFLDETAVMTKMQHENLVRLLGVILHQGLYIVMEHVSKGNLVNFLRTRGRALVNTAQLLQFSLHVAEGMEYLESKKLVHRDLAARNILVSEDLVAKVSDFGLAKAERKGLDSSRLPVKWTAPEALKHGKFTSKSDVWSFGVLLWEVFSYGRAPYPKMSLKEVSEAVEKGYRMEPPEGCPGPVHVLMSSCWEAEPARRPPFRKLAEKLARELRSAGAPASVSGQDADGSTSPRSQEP

Compound: CN(C(=O)CN1CCOCC1)c1ccc2sc3c(-c4cccc5c(=O)cc(N6CC7CCC(C6)O7)oc45)cccc3c2c1 [NU5455]
- inhibition at 1 µM: -6.3%
